In patent publication US5047533A, “Acyclic purine phosphonate nucleotide analogs” (SRI International, priority 1990, dated 1991):
≈ marks a conversion by molar mass, not a printed value. Where two headings read alike, the source gives them in different places.

How the values were obtained:
[1] = system: human cytomegalovirus (strain AD169); test: Plaque reduction, human cytomegalovirus; format: cell-based
Description: (§1) One herpes virus strain employed was Strain McCrae of type 1 herpes (thymidine kinase positive virus) (HSV-1TK^+). This strain was prepared and titered in MA-104 cells and frozen at -90° C. until use. Also used were strain HF (HSV-1TK^-). Strain E194 (HSV-2), NJB strain (MCMV), strain AD169 (HCMV).
^a 50% effective dose, determined from plot of data.
(§2) The data on acyclovir were gathered from tests run in MRC-5 cells grown under agarose overlay, with plaques read 7 days after virus exposure.

[2] = system: HSV-1TK+; test: In vivo guinea pig HSV-1TK+ lesion test, topical solution; conditions: guinea pigs; 5% solution of acyclovir; five days after treatment
Description: Compound 2 also was tested in vivo in guinea pigs as an agent against HSV-1TK^+. The animals were inoculated with the virus; 18 hours later Compound 2 at two concentrations (0.4% and 1-2% (saturated) solution in water) was administered, and five days later blister diameters at the point of inoculation were measured. A 5% solution of acyclovir or a 1.4% solution of poly(vinylalcohol) was used as control. Satellite lesions were measured, as well.

[3] = Cytotoxicity (maximum tolerated dose), control tests in 96-well microplates; format: cell-based; conditions: Table 5; microscopic examination, separately run control tests; read-out: Approx. MTD (dose causing approximately 50% cytotoxic effects in cells)
Text: (§3) ^b Maximum tolerated dose: That dose causing approximately 50%
(§4) cytotoxic effects in cells, determined by the microscopic examination of
(§5) cells for sloughing, shape alteration, and granularity in separately run
(§6) control tests in 96well microplates.
as §2

[4] = system: HSV-1TK+ (Strain McCrae of type 1 herpes); test: Inhibition of viral CPE, HSV-1TK+ in MA-104 cells; format: cell-based; conditions: for inhibition at 1 µg/mL: 1.0 μg/ml; for inhibition at 3.2 µg/mL: 3.2 μg/ml; for inhibition at 10 µg/mL: 10 μg/ml; for inhibition at 100 µg/mL: 100 μg/ml; for inhibition at 320 µg/mL: 320 μg/ml; for inhibition at 1000 µg/mL: 1000 μg/ml
Description: as §1
(§7) Continuous passaged monkey kidney (MA-104) cells were used for testing of herpes-type virus, with growth medium consisting of Minimum Essential Medium (MEM) supplemented with 0.1% NaHCO3 and […] gentamicin.
(§8) To a 96 well microtiter plate containing an established 24 hour monolayer of cells from which the medium has been decanted was added 0.1 ml of varying (one-half log10) concentrations of test compound, which incubated on the cell 15 minutes, after which 0.1 ml of virus in a concentration of 320 cell culture 50% infectious doses (CCID50)/0.1 ml was added. The plate was covered with plastic wrap and incubated at 37° C. Included with the test were toxicity controls (each concentration of compound+test medium in place of virus), virus controls (virus+test medium in place of compound) and cell controls (test medium in place of compound and virus). The cells were examined microscopically after 72 hours for evidence of cytotoxicity and for viral cytopathic effect (CPE). Vidarabine was run on the same plate in parallel. The test compounds were added to the medium at a concentration of 2000 μg/ml for use as a positive control.
Antiviral activity was determined by observation of inhibition of viral CPE. This activity was expressed by ED50, defined as that dose range of compound causing 50% CPE inhibition.
A Virus Rating (VR) was also determined. VR is a numerical expression of antiviral activity, weighted to take into account any cytotoxicity observed, as discussed by Sidewell et al, Appl Microbiol (1971) 22:797. Generally, a VR of 0.1-0.4 indicates slight antiviral effect, 0.5-0.9 indicates moderate antiviral effect, and ≥1.0 indicates strong antiviral effect.

[5] = system: murine CMV (NJB strain); test: Inhibition of viral CPE, murine CMV; format: cell-based
Description: as §1, §7
as §8, with “Vidarabine was run on the same plate in parallel. The test compounds were added to the medium at a concentration of 2000 μg/ml for use as a positive control.” left out
(§9) Antiviral activity was determined by observation of inhibition of viral CPE. […]
A Virus Rating (VR) was also determined. […]

[6] = system: reverse transcriptase (RT) from Moloney murine leukemia virus (MMLV) or avian myeloblastosis virus (AMV); test: Reverse transcriptase assay; format: biochemical; conditions: 8 mM concentration
Description: For the reverse transcriptase assay, cloned reverse transcriptase (RT) (Bethesda Research Laboratories) from Moloney murine leukemia virus (MMLV) or avian myeloblastosis virus (AMV) (Seikagaku or Boehringer Mannheim) was used to direct DNA synthesis from a polyribonucleotide template and a oligodeoxynucleotide primer under reaction conditions (Houts, G. E., et al, J Virol (1979) 29:517.)
Reaction mixtures (100 μl) for the assay of MMLV RT consisted of 50 mM Tris-hydrochloride, pH 8.0, 6 mM MgCl2, 40 mM KCl, 100 μg bovine serum albumin per ml, 1 mM dithiothreitol, 0.1 mM polyadenylic acid (Pharmacia, Inc.), 0.1 mM oligo(dT)12-18 (Pharmacia, Inc.), 0.4 mM deoxythymidine triphosphate (dTTP), and 0.1 mM tritiated (93.5 Cl/mmol) dTTP (New England Nuclear). The compounds assayed were added in various concentrations and dilutions at a volume of 10 μl. Results were confirmed by duplicate assays. Dilutions were made using 10% aqueous DMSO. The total activity was measured by spotting on dry Whatman 3 mm filter disks and radioactivity was determined by liquid scintillation techniques. The assay time course was begun by adding 10 units of RT from MMLV or AMV and incubating the reaction at 37° C. […] Disks were dried under a heat lamp and the acid-insoluble product radioactivity was determined by liquid scintillation counting. […]

[7] = system: HIV; test: Antiviral activity versus HIV in lymphoblastoid cells; format: cell-based; conditions: Human immunodeficiency virus 1, Lymphoblastoid cell; read-out: ED50 against HIV
Description: The compounds of the invention were evaluated in vitro as antiviral agents against herpes virus and against RNA retrovirus. Various herpes strains were used. An infected B lymphoblastoid cell line was used as HIV substrate to test antiviral activity with respect to RNA retrovirus.
To test antiviral activity versus HIV, the following procedure was used: Infectious HIV was assayed in cell culture as described originally by Barre-Sinoussi et al for isolation of LAV, except that persistently infected lymphoblastoid cells were used instead of mononuclear cells from anti-LAV negative donors. HIV obtained from cell culture was stored in liquid nitrogen in aliquots of RPMI 1640 culture medium with 20% of total calf serum and 20% glycerol and containing 1,000 TCID-50 HIV. The lymphoblastoid cells (10^6) were incubated with 1,000 TCID-50 of HIV obtained from cell cultures, and cells were then cultured in RPMI-1640 medium. Culture medium was changed every 3 days for 3 weeks and the medium for each 3-day period from Day 6 through Day 21 was assayed for viral reverse transcriptase activity by concentrating (pelleting) virus by ultracentrifugation in the 100 place Spinco 25 rotor and assaying pellets for reverse transcriptase (RT) using a ^32 P-dTTP in the presence of dimer-template poly rA-oligo dT. […]

[8] = system: HSV-2 (Strain E194); test: Inhibition of viral CPE, HSV-2; format: cell-based
Description: as §1, §7
as §8, with “The test compounds were added to the medium at a concentration of 2000 μg/ml for use as a positive control.” left out
as §9

[9] = system: cells; test: Cytotoxicity (maximum tolerated dose), control tests in 96-well microplates; format: cell-based; conditions: overall, Table 5
Text: as §3, §4, §5, §6, §2

[10] = MA104, read-out: CPE Inhib., Table 2
[11] = MA104, read-out: CPE Inhib., Table 3 Test 1
[12] = MA104, read-out: CPE Inhib., Table 3 Test 2

With Nc1nc2c(ncn2COCCO)c(=O)[nH]1 [Acyclovir, 9-(2-hydroxyethoxymethyl) guanine, reference compound] the “No. Plaques” value ([1]; Experiment No. 1, 32 μg/ml) was 7, the “No. Plaques” value ([1]; Experiment No. 1, 100 μg/ml) was 1 and the “No. Plaques” value ([1]; Experiment No. 2, 10 μg/ml) was 20. The “No. Plaques” value ([1]; Experiment No. 2, 32 μg/ml) was 8, the “No. Plaques” value ([1]; Experiment No. 2, 100 μg/ml) was 1 and the “Approx. ED50” value ([1]; Experiment No. 2, determined from plot of data) was 10 to 32 µg/mL. It also gave an inhibition at 32 µg/mL ([1]; Human betaherpesvirus 5, AD169, Experiment No. 1, 32 μg/ml, read-out: % Reduct.) of 59%, an inhibition at 100 µg/mL ([1]; Human betaherpesvirus 5, AD169, Experiment No. 1, 100 μg/ml, read-out: % Reduct.) of 94% and an inhibition at 10 µg/mL ([1]; Human betaherpesvirus 5, AD169, Experiment No. 2, 10 μg/ml, read-out: % Reduct.) of 9%. It also gave an inhibition at 32 µg/mL ([1]; Human betaherpesvirus 5, AD169, Experiment No. 2, 32 μg/ml, read-out: % Reduct.) of 64%, an inhibition at 100 µg/mL ([1]; Human betaherpesvirus 5, AD169, Experiment No. 2, 100 μg/ml, read-out: % Reduct.) of 96% and an EC50 ([1]; Human betaherpesvirus 5, AD169, Experiment No. 1, determined from plot of data, read-out: Approx. ED50) of 10 to 32 µg/mL (≈ 44.4 to 142 µM). For the same compound, the “TK+ (average number of lesions)” value [2] was 1.0 and the CC50 [3] was roughly 1000 µg/mL (≈ 4440 µM).
In the case of Nc1nc2c(ncn2COCCCP(=O)(O)O)c(=O)[nH]1 [Compound 1, 9-(3'-phosphono-1'-propoxymethyl)guanine], the “activity against HSV-1TK+ relative to vidarabine” value [4] is reported as “comparable to that of vidarabine”, the “VR (Virus Rating)” value ([4]; additional tests against HSV-1TK+) is reported as 0.6 and the “activity against murine CMV” value [5] is reported as “not active”. For the same compound, the “inhibition of reverse transcriptase” value [6] was 75% and the EC50 [7] was 40 to 50 µg/mL (≈ 132 to 165 µM).
For CCOP(=O)(O)CCC(CO)OCn1cnc2c(=O)[nH]c(N)nc21 (stereo not drawn) [Compound 5, 9(3'-ethylphosphono-1'-hydroxymethyl-1'-propyloxymethyl)guanine], the “effectiveness against HSV1TK+” value [4] was “mildly effective”, the “No. Plaques” value ([1]; Experiment No. 1, 32 μg/ml) was 2 and the “No. Plaques” value ([1]; Experiment No. 1, 100 μg/ml) was 1. The “No. Plaques” value ([1]; Experiment No. 2, 10 μg/ml) was 7, the “No. Plaques” value ([1]; Experiment No. 2, 32 μg/ml) was 3 and the “No. Plaques” value ([1]; Experiment No. 2, 100 μg/ml) was 0. For the same compound, the inhibition at 32 µg/mL ([1]; Human betaherpesvirus 5, AD169, read-out: % Reduct., Experiment No. 1, 32 μg/ml) was 88%, the inhibition at 100 µg/mL ([1]; Human betaherpesvirus 5, AD169, read-out: % Reduct., Experiment No. 1, 100 μg/ml) was 94% and the inhibition at 10 µg/mL ([1]; Human betaherpesvirus 5, AD169, read-out: % Reduct., Experiment No. 2, 10 μg/ml) was 68%. For the same compound, the inhibition at 32 µg/mL ([1]; Human betaherpesvirus 5, AD169, read-out: % Reduct., Experiment No. 2, 32 μg/ml) was 86%, the inhibition at 100 µg/mL ([1]; Human betaherpesvirus 5, AD169, read-out: % Reduct., Experiment No. 2, 100 μg/ml) was 100% and the EC50 ([1]; Human betaherpesvirus 5, AD169, read-out: Approx. ED50, Experiment No. 1, determined from plot of data) was roughly 0.1 µg/mL (≈ 0.277 µM). The EC50 ([1]; Human betaherpesvirus 5, AD169, read-out: Approx. ED50, Experiment No. 2, determined from plot of data) was roughly 3.2 µg/mL (≈ 8.86 µM), the EC50 ([1]; Human betaherpesvirus 5, AD169, read-out: ED50, human CMV) was 0.1 to 3.2 µg/mL (≈ 0.277 to 8.86 µM) and the “human CMV-inhibitory effect relative to acyclovir” value ([1]; overall, Table 5) was “more potent”. The “effectiveness against HSV-2” value [8] was “mildly effective”, the CC50 [3] was roughly 1000 µg/mL (≈ 2770 µM) and the “cytotoxicity relative to acyclovir” value [9] was “no more cytotoxic”.
For Nc1ncnc2c1ncn2[C@@H]1O[C@H](CO)[C@@H](O)[C@@H]1O [Vidarabine], the EC50 ([4]; MA104, 72 h, read-out: ED50) was 10 µg/mL (≈ 37.4 µM), the inhibition at 1 µg/mL [4, 10] was 56% and the inhibition at 3.2 µg/mL [4, 10] was 28%. It also gave an inhibition at 10 µg/mL [4, 10] of 69%, an inhibition at 32 µg/mL ([4]; MA104, read-out: CPE Inhib., Table 2, 32 μg/ml) of 87% and an inhibition at 100 µg/mL [4, 10] of 87%. The inhibition at 320 µg/mL [4, 10] was 100%, the inhibition at 1000 µg/mL [4, 10] was 100% and the inhibition at 1 µg/mL [4, 11] was 0%. It also gave an inhibition at 10 µg/mL [4, 11] of 60%, an inhibition at 320 µg/mL [4, 11] of 100% and an inhibition at 1000 µg/mL [4, 11] of 100%. The inhibition at 1 µg/mL [4, 12] was 0%, the inhibition at 3.2 µg/mL [4, 12] was 0% and the inhibition at 100 µg/mL [4, 12] was 85%. For the same compound, the inhibition at 320 µg/mL [4, 12] was 100%, the inhibition at 1000 µg/mL [4, 12] was 100% and the “VR (Virus Rating)” value ([4]; Table 2, HSV-1TK+) was 1.3. For the same compound, the “VR (Virus Rating)” value ([4]; Table 3 Test 1, HSV-1TK+) was 0.8 and the “VR (Virus Rating)” value ([4]; Table 3 Test 2, HSV-1TK+) was 0.7.
